Key:
[1] = tested on: PRB-mediated amphiregulin gene transcription; assay: Quantitative RT-PCR of endogenous gene transcription in MDA-MB-231 iPRAB cells; type: cell-based, human; details: APRn 1 μM, 6 h, FIG. 10
Method: MDA-MB-231 iPRAB cells were cultured in 6-well plates in RPMI 1640 medium with L-glutamine without phenol red, enriched with 5% DCC serum containing inducer ligand RSL1 (500 nM) or Dox (1 μg/ml) for PRA or PRB expression during 24 h. […] Total RNA was then extracted using TRIZOL reagent (Invitrogen). One μg of total RNA was treated with DNase I Amplification Grade (Invitrogen) and then reverse transcribed using cDNA RT kit from Applied Biosystems (Courtaboeuf, France) and random primers. Following a ten-fold dilution, the cDNA samples were amplified in duplicate by real-time PCR in ABI 7300 apparatus (Applied Biosystems), using the Power SYBR Green PCR Master Mix (Applied Biosystems) in the presence of 300 nM of forward and reverse specific primers. A dissociation curve was also obtained at the end of the reaction to verify the specificity of the pair of primers. Standard curve for PCR calibration of each gene transcript tested was obtained with the corresponding amplicon subcloned in pGEMT-easy (Promega) and verified by sequencing analysis. The expression level of each gene transcript was normalized to 18S RNA level, and results were expressed as means of relative concentrations of six samples (attomole of specific gene cDNA/femtomole of 18S cDNA±SEM.)
The selected APRn (APR16, APR19, APR43, APR47, APR51, APR54) were verified for their agonist and antagonistic properties on endogenous gene transcription. A ligand activated PRB target gene, amphiregulin was selected for these studies (Georgiakaki, M. Mol Endocrinol 2006, 20, 2122) and quantitative RT-PCR analysis was performed in MDA-MB-231 iPRAB cells as described in Materials and Methods.

hAR = biological target: T1, hAR (Homo sapiens, UniProt P10275); assay: APRn selectivity: transactivation in HEK293T cells transiently expressing hAR; type: cell-based; details: for agonist efficacy towards hAR (in words): HEK293T, FIG. 11; for selectivity for hPR vs hAR, hGR and hMR (in words): conclusion from hAR, hGR and hMR transactivation assays
T1 construct: expressed in transfected cells; host or cells: HEK 293T
T1 sequence (P10275 1-920): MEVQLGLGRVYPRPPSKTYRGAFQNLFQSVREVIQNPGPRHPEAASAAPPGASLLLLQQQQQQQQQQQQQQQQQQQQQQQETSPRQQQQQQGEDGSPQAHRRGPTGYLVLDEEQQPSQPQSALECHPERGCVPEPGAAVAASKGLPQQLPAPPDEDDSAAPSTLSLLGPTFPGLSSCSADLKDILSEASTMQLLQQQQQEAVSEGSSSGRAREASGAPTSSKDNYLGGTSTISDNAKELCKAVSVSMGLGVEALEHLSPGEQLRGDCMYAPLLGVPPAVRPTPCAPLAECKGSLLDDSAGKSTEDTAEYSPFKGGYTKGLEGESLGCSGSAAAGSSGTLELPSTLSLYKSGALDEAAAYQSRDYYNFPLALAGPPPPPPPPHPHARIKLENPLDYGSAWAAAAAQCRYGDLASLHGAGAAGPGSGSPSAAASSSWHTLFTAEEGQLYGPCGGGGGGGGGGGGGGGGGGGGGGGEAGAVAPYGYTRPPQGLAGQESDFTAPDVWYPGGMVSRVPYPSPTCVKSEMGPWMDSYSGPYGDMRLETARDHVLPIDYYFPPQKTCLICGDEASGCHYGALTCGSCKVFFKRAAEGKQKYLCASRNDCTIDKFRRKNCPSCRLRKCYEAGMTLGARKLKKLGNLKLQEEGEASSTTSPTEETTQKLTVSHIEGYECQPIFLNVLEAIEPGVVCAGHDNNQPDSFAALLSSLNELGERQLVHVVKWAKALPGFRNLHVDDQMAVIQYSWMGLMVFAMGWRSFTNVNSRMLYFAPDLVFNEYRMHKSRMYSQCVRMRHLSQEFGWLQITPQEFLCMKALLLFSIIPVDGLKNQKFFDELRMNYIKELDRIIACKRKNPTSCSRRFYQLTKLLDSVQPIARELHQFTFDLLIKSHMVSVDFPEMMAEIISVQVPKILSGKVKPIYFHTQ
Method: Measurement of the APRn Selectivity in HEK 293T.
The HEK-293T cells were cultured and transfected according to the method described above for the PR transactivation assays. The expression vectors pcDNA-hAR, kindly provided by G. A. Coetzee, pchGR (Hellal-Levy, C et al. FEBS Lett 1999, 464, 9), and pchMR (Fagart, J. et al. EMBO J. 1998, 17, 3317) were used for studying the ability of APRn to activate or inactivate the AR, GR and MR, respectively. For each transfection assays, 2 μg of the expression vector was used together with 7 μg of the GRE2-Luc reporter vector. Dihydrotestosterone (DHT), dexamethasone (Dex) and Aldosterone (Aldo) were selected as AR, GR and MR ligands, respectively. They were used at the concentration of 10^−9 M. The APRn agonist and antagonist efficacy for AR, GR and MR were measured as described above for PR. The results are the mean±SEM of three independent experiments.
Transfection assays were performed in HEK 293T cells by using expression vectors for the hAR, hGR and hMR and the GRE2-Luc reporter used for the PR transactivation assays.

Compound | agonistic effect on amphiregulin gene transcription [1] | agonist efficacy towards hAR (in words) (hAR) | selectivity for hPR vs hAR, hGR and hMR (in words) (hAR)
CC(=O)[C@H]1CC[C@H]2[C@@H]3CC=C4C[C@@H](F)CC[C@]4(C)[C@H]3CC[C@]12C [APR-16, 3β-Fluoropregn-5-en-20-one] | nearly unable to exert agonistic effect | low agonist efficacy | selective hPR antagonists
CC#C[C@]1(O)CCC2C3CC[C@H]4CCCC[C@]4(C)C3CC[C@@]21C (stereo partly drawn) [APR-42, 17α-(1-Propynyl)-5α-androstan-17β-ol] | – | low agonist efficacy | selective hPR antagonists
C[C@]12CCC3C(CC=C4C[C@@H](F)CC[C@@H]43)C1CCC2=O (stereo partly drawn) [APR-47, 3β-Fluoro-19-nor-androst-5-en-17-one] | nearly unable to exert agonistic effect | low agonist efficacy | selective hPR antagonists
CC#C[C@]1(O)CCC2C3CC[C@H]4CCCC[C@@H]4C3CC[C@@]21C (stereo partly drawn) [APR-54, 17α-(1-Propynyl)-19-nor-5-androstan-17β-ol] | nearly unable to exert agonistic effect | – | –

Reference: patent US20130203718A1 (priority 2010, published 2013)
